This note sets out measurements from patent US20180318287A1, “Imidazo[4,5-c]quinolin-2-one Compounds and Their Use in Treating Cancer” (ASTRAZENECA AB, priority 2015, published 2018).

Where two headings read alike, the source gives them in different places.

The IC50 is the concentration at which inhibition is half-maximal.

Common to all, as to assay type: cell-based
One experiment concerns the target T1, ATM kinase (Homo sapiens, UniProt Q13315).
T1 construct: endogenous in cells; host or cells: HT29 cells (ECACC #85061109)
As to the kind of experiment: Assay a): ATM cellular potency (pATM Ser1981 in irradiated HT29 cells). On the procedure: Most ATM molecules in the cell are rapidly phosphorylated on this site after doses of radiation as low as 0.5 Gy, and binding of a phosphospecific antibody is detectable after the introduction of only a few DNA double-strand breaks in the cell.
The rationale of the p ATM assay is to identify inhibitors of ATM in cells. HT29 cells are incubated with test compounds for 1 hr prior to X-ray-irradiation. 1 h later the cells are fixed and stained for p ATM (Ser1981). The fluorescence is read on the arrayscan imaging platform.
The following morning compounds of Formula (I) in 100% DMSO were added to assay plates by acoustic dispensing. After 1 h incubation at 37° C. and 5% CO2, plates (up to 6 at a time) were irradiated using the X-RAD 320 instrument (PXi) with equivalent to ˜600cGy. Plates were returned to the incubator for a further 1 h. […] Then 20 μl of 0.1% Triton X100 in PBS was added and incubated for 20 minutes at r.t., to permeabalise cells. Then the plates were washed once with […] PBS, using a Biotek EL405 plate washer.
After 1 h incubation at r.t., the plates were washed three times with 50 μl/well PBS, using a Biotek EL405 plate washer, and plates were sealed and kept in PBS at 4° C. until read. Plates were read using an ArrayScan VTI instrument, using an XF53 filter with 10× objective.

A further experiment addresses T2, ATR kinase (Homo sapiens, UniProt Q13535).
T2 construct: endogenous in cells; host or cells: HT29 cells (ECACC #85061109)
In words: Assay b): ATR cellular potency (pChk1 Ser345 in HT29 cells after 4NQO). On the procedure: ATR is a PI 3-kinase-related kinase which phosphorylates multiple substrates on serine or threonine residues in response to DNA damage during or replication blocks. Chk1, a downstream protein kinase of ATR, plays a key role in DNA damage checkpoint control. Activation of Chk1 involves phosphorylation of Ser317 and Ser345 (the latter regarded as the preferential target for phosphorylation/activation by ATR).
The following morning compound of Formula (I) in 100% DMSO were added to assay plates by acoustic dispensing. After 1 h incubation at 37° C. and 5% CO2, 40 nl of 3 mM 4NQO in 100% DMSO was added to all wells by acoustic dispensing, except minimum control wells which were left untreated with 4NQO to generate a null response control. Plates were returned to the incubator for a further 1 h. […] Then 20 μl of 0.1% Triton X100 in PBS was added and incubated for 10 minutes at r.t., to permeabalise cells. Then the plates were washed once with 50 μl/well PBS, using a Biotek EL405 plate washer.
After 2 h incubation at r.t., the plates were washed three times with 50 μl/well PBS, using a Biotek EL405 plate washer, and plates were then sealed with black plate seals until read. Plates were read using an ArrayScan VTI instrument, using an XF53 filter with 10× objective.

The next experiment deals with T3, mTOR (Homo sapiens, UniProt P42345).
T3 construct: phosphorylation of the Akt protein at Ser473 (AKT lies downstream of PI3Kα in the signal transduction pathway) in the MDA-MB-468 cells; endogenous in cells; host or cells: MDA-MB-468 cells (ATCC HTB 132)
In words: Assay d): mTOR cellular potency (phospho-AKT Ser473 in MDA-MB-468 cells). On the procedure: This assay was used to measure mTOR inhibition in cells. The aim of the phospho-AKT cell based mechanism of action assay using the Acumen Explorer is to identify inhibitors of either PI3Kα or mTOR-Rictor (Rapamycin insensitive companion of mTOR). This is measured by any decrease in the phosphorylation of the Akt protein at Ser473 (AKT lies downstream of PI3Kα in the signal transduction pathway) in the MDA-MB-468 cells following treatment with compound.
MDA-MB-468 cells (human breast adenocarcinoma #ATCC HTB 132) were seeded at 1500 cells/well in 40 μl of DMEM containing 10% FBS and 1% glutamine into Greiner 384 well black flat-bottomed plates. Cell plates were incubated for 18 h in a 37° C. incubator before dosing with compounds of Formula (I) in 100% DMSO using acoustic dispensing. Compounds were dosed in a 12 point concentration range into a randomised plate map. Control wells were generated either by dosing of 100% DMSO (max signal) or addition of a reference compound (a PI3K-βinhibitor) that completely eliminated the pAKT signal (min control). Plates were incubated at 37° C. for 2 h; cells were then fixed by the addition of 10 μl of a 3.7% formaldehyde solution. After 30 minutes the plates were washed with PBS using a Tecan PW384 plate washer. Wells were blocked and cells permeabilised with the addition of 40 μl of PBS containing 0.5% Tween20 and 1% Marvel™ (dried milk powder) and incubated for 60 minutes at r.t. The plates were washed with PBS containing 0.5% (v/v) Tween20 and 20 μl rabbit anti-phospho AKT Ser473 (Cell Signalling Technologies, #3787) in same PBS-Tween+1% Marvel™ was added and incubated overnight at 4° C.
Plates were washed 3 times with PBS+0.05% Tween 20 using a Tecan PW384. 20 μl of secondary antibody Alexa Fluor 488 anti-Rabbit (Molecular Probes, #A11008) diluted in PBS+0.05% Tween20 containing 1% Marvel™ was added to each well and incubated for 1 h at r.t. Plates were washed three times as before then 20 μl PBS added to each well and plates sealed with a black plate sealer.
The plates were read on an Acumen plate reader as soon as possible, measuring green fluorescence after excitation with 488 nm laser. Using this system IC50 values were generated and quality of plates was determined by control wells. Reference compounds were run each time to monitor assay performance.

Setting [1] is: HT29 cells, X-ray irradiation, pATM Ser1981; Table 2; read-out: Assay a) ATM Cell IC50.
[2] abbreviates: HT29 cells, 4NQO, pChk1 Ser345; Table 2; read-out: Assay b) ATR Cell IC50.
Setting [3] is: MDA-MB-468 cells, phospho-AKT Ser473, 2 h; Table 2; read-out: Assay d) mTOR Cell IC50.

T1 sequence (Q13315 whole entry): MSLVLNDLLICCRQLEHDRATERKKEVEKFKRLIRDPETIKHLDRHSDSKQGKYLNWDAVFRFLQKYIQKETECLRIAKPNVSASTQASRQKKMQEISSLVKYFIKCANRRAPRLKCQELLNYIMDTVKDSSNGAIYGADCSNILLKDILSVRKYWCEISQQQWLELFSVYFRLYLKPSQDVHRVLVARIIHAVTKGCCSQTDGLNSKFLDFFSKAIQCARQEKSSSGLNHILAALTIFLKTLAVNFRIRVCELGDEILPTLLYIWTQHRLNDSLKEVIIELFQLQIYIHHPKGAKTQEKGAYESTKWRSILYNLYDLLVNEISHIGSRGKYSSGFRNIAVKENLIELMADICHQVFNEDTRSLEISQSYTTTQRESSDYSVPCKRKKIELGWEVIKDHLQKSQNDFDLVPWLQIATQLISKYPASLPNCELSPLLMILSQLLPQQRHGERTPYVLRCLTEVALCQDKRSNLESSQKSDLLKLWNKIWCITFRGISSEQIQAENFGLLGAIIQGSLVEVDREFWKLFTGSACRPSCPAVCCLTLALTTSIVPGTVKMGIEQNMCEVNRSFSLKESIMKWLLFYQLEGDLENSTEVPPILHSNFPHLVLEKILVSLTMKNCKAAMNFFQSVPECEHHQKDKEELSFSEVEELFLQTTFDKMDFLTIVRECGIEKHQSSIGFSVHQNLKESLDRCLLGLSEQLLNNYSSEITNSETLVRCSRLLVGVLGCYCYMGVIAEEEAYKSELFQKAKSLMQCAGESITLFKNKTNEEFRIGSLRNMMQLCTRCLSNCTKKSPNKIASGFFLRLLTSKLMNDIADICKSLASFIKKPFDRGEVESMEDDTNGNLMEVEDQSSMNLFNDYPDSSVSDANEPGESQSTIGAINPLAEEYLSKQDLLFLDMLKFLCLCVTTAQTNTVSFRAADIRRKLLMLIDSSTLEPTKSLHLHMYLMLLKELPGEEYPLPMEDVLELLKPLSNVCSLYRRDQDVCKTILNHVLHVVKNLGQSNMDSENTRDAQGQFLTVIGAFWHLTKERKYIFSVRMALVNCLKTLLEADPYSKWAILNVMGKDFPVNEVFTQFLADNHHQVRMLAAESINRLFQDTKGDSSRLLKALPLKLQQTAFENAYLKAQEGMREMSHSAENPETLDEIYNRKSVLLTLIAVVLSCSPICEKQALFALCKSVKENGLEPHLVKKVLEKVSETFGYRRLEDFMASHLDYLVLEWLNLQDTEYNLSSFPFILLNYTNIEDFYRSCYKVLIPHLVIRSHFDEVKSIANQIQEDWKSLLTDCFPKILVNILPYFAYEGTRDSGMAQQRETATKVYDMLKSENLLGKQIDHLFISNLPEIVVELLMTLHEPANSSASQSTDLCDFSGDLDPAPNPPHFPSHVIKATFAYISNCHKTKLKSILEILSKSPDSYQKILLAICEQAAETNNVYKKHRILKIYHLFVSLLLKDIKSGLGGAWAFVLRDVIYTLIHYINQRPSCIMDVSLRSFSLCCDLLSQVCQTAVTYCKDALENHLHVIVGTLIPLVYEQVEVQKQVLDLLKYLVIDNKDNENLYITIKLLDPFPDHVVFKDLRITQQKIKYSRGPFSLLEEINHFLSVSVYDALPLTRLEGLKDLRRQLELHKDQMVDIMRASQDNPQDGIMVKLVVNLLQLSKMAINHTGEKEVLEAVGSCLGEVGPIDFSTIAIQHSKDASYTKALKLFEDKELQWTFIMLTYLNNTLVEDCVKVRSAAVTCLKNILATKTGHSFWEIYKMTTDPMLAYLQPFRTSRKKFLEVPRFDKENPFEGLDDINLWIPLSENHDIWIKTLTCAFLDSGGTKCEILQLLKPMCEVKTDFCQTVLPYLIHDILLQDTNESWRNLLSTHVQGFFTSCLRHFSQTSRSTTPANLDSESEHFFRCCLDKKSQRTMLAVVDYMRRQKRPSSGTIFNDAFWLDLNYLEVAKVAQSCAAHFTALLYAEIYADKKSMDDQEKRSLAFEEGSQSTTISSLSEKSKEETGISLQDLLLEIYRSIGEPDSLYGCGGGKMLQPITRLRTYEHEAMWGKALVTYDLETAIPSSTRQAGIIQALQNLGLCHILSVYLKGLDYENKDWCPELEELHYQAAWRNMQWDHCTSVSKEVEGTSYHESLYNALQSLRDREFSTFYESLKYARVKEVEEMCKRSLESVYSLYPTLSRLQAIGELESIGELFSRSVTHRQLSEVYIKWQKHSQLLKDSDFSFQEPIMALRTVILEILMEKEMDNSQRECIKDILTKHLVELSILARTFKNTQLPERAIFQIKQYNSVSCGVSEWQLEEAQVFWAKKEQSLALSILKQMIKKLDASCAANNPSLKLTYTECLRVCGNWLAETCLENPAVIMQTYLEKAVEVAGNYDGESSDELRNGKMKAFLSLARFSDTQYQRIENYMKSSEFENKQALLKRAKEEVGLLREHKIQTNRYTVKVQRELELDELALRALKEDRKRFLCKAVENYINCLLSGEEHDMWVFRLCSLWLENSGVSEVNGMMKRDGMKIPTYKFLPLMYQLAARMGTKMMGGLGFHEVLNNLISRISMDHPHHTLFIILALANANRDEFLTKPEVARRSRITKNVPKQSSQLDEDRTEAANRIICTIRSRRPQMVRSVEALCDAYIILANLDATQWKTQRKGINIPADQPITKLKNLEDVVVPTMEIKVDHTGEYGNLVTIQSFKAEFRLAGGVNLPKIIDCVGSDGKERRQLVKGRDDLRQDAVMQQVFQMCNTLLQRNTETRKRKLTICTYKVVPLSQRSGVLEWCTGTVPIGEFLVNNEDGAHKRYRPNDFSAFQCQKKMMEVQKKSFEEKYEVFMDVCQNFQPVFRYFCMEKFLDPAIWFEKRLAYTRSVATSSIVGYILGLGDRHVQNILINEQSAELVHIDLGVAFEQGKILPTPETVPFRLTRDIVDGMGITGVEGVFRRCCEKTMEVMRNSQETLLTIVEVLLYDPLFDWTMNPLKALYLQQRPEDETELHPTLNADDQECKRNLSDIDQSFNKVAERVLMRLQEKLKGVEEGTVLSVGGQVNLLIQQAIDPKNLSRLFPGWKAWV

`CN(C)CCOc1ccc(-c2ccc3ncc4c(c3c2)n(C2CCOCC2)c(=O)n4C)cc1` [Example 54, 8-[4-[2-(dimethylamino)ethoxy]phenyl]-3-methyl-1-tetrahydropyran-4-yl-imidazo[4,5-c]quinolin-2-one]: the figures for the IC50 on ATM kinase (setting [1]), at ATR kinase (setting [2]) and on mTOR (setting [3]) were 11.1 nM, over 24700 nM and 7730 nM, respectively.

`CO[C@H]1CC[C@H](n2c(=O)n(C)c3cnc4cc(F)c(-c5ccc(OCCCN6CCC6)cc5)cc4c32)C1` (single isomer, unassigned) [Example 23, 8-[4-[3-(azetidin-1-yl)propoxy]phenyl]-7-fluoro-1-[trans-3-methoxycyclopentyl]-3-methyl-imidazo[4,5-c]quinolin-2-one]: the IC50 at ATM kinase (setting [1]) is 1.42 nM; on ATR kinase (setting [2]), over 30000 nM; on mTOR (setting [3]) it was 5680 nM.

With `CO[C@@H]1CCC[C@H](n2c(=O)n(C)c3cnc4ccc(-c5ccc(OCCCN(C)C)cc5)cc4c32)C1` (relative stereo) [Example 33, 8-[4-[3-(dimethylamino)propoxy]phenyl]-1-[cis-3-methoxycyclohexyl]-3-methyl-imidazo[4,5-c]quinolin-2-one], the IC50 stood at 2.3 nM at ATM kinase (setting [1]), 28000 nM at ATR kinase (setting [2]) and 1230 nM at mTOR (setting [3]).

For the compound `Cn1c(=O)n(C2CCOCC2)c2c3cc(-c4ccc(OCCCN5CCCCC5)cc4)ccc3ncc21` [Example 18, 3-methyl-8-[4-[3-(1-piperidyl)propoxy]phenyl]-1-tetrahydropyran-4-yl-imidazo[4,5-c]quinolin-2-one], the IC50 was over 17800 nM on ATR kinase (setting [2]) and 2650 nM on mTOR (setting [3]).

Consider `CO[C@H]1C[C@@H](n2c(=O)n(C)c3cnc4ccc(-c5ccc(OCCCN6CCCCC6)cc5)cc4c32)C1` [Example 43, 1-(cis-3-methoxycyclobutyl)-3-methyl-8-[4-[3-(1-piperidyl)propoxy]phenyl]imidazo[4,5-c]quinolin-2-one], for which the IC50 is 0.254 nM at ATM kinase (setting [1]), over 30000 nM at ATR kinase (setting [2]) and 3630 nM on mTOR (setting [3]).

With `CO[C@H]1C[C@H](n2c(=O)n(C)c3cnc4ccc(-c5ccc(OCCCN6CCCC6)cc5)cc4c32)C1` [Example 42, 1-(trans-3-methoxycyclobutyl)-3-methyl-8-[4-(3-pyrrolidin-1-ylpropoxy)phenyl]imidazo[4,5-c]quinolin-2-one], the IC50 at ATM kinase (setting [1]) was 0.689 nM; on ATR kinase (setting [2]), over 30000 nM; at mTOR (setting [3]) it was 2170 nM.

Regarding `CC(C)n1c(=O)n(C)c2cnc3cc(F)c(-c4ccc(OCCCN5CCC5)cc4)cc3c21` [Example 4, 8-[4-[3-(azetidin-1-yl)propoxy]phenyl]-7-fluoro-1-isopropyl-3-methyl-imidazo[4,5-c]quinolin-2-one], the figures for the IC50 at ATM kinase (setting [1]), at ATR kinase (setting [2]) and on mTOR (setting [3]) were 6.64 nM, over 30000 nM and 9120 nM, respectively.

As to `CO[C@@H]1CC[C@@H](n2c(=O)n(C)c3cnc4cc(F)c(-c5ccc(OCCCN6CCC6)cc5)cc4c32)C1` (single isomer, unassigned) [Example 24, 8-[4-[3-(azetidin-1-yl)propoxy]phenyl]-7-fluoro-1-[trans-3-methoxycyclopentyl]-3-methyl-imidazo[4,5-c]quinolin-2-one], the values for the IC50 on ATM kinase (setting [1]), on ATR kinase (setting [2]) and at mTOR (setting [3]) were 0.917 nM, over 24600 nM and 5910 nM, respectively.

Take `Cn1c(=O)n([C@@H]2CCCOC2)c2c3cc(-c4ccc(OCCN5CCCC5)cc4)ccc3ncc21` [Example 50, 3-methyl-8-[4-(2-pyrrolidin-1-ylethoxy)phenyl]-1-[(3R)-tetrahydropyran-3-yl]imidazo[4,5-c]quinolin-2-one]: the figures for the IC50 at ATM kinase (setting [1]), on ATR kinase (setting [2]) and on mTOR (setting [3]) were 13.4 nM, over 25500 nM and at least 30000 nM, respectively.

Take `CO[C@@H]1CC[C@@H](n2c(=O)n(C)c3cnc4ccc(-c5ccc(OCCCN6CCCC6)cc5)cc4c32)C1` (single isomer, unassigned) [Example 20, 1-[trans-3-methoxycyclopentyl]-3-methyl-8-[4-(3-pyrrolidin-1-ylpropoxy)phenyl]imidazo[4,5-c]quinolin-2-one]: the IC50 on ATM kinase (setting [1]) was found to be 0.452 nM; at ATR kinase (setting [2]), 21300 nM; on mTOR (setting [3]) it was 5500 nM.

For the compound `Cn1c(=O)n([C@H]2CCCOC2)c2c3cc(-c4ccc(OCCCN5CCCC5)cc4)ccc3ncc21` [Example 15, 3-methyl-8-[4-(3-pyrrolidin-1-ylpropoxy)phenyl]-1-[(3S)-tetrahydropyran-3-yl]imidazo[4,5-c]quinolin-2-one], the values for the IC50 on ATM kinase (setting [1]), at ATR kinase (setting [2]) and at mTOR (setting [3]) were 0.911 nM, 21600 nM and 2580 nM, respectively.

In the case of `CO[C@@H]1CC[C@H](n2c(=O)n(C)c3cnc4ccc(-c5ccc(OCCCN(C)C)cc5)cc4c32)C1` (single isomer, unassigned) [Example 34, 8-[4-[3-(dimethylamino)propoxy]phenyl]-1-[cis-3-methoxycyclopentyl]-3-methyl-imidazo[4,5-c]quinolin-2-one], the IC50 on mTOR (setting [3]) was determined as 4660 nM.

As to `CO[C@@H]1CCC[C@H](n2c(=O)n(C)c3cnc4ccc(-c5ccc(OCCCN6CCCC6)cc5)cc4c32)C1` (relative stereo) [Example 39, 1-[cis-3-methoxycyclohexyl]-3-methyl-8-[4-(3-pyrrolidin-1-ylpropoxy)phenyl]imidazo[4,5-c]quinolin-2-one], the IC50 at mTOR (setting [3]) was 899 nM.

As for `COC(=O)N1CCC(n2c(=O)n(C)c3cnc4ccc(-c5ccc(OC)nc5)cc4c32)CC1` [CN102372711A Compound 4, reference compound], the IC50 at ATM kinase (HT29 cells, X-ray irradiation, pATM Ser1981; Table 3 comparative data; read-out: Assay a) ATM Cell IC50) was found to be 11.2 nM; on ATR kinase (HT29 cells, 4NQO, pChk1 Ser345; Table 3 comparative data; read-out: Assay b) ATR Cell IC50), 68.6 nM; at mTOR (MDA-MB-468 cells, phospho-AKT Ser473, 2 h; Table 3 comparative data; read-out: Assay d) mTOR Cell IC50), 72.9 nM.

As to `CO[C@H]1CC[C@H](n2c(=O)n(C)c3cnc4ccc(-c5ccc(OCCCN(C)C)cc5)cc4c32)C1` [Example 6, 8-[4-[3-(Dimethylamino)propoxy]phenyl]-1-[(1S,3S)-3-methoxycyclopentyl]-3-methyl-imidazo[4,5-c]quinolin-2-one], on mTOR (setting [3]), the IC50 amounted to 781 nM.
